These results are taken from patent publication US8129371B2, “Thienopyrimidine and pyrazolopyrimidine compounds and their use as mTOR kinase and PI3 kinase inhibitors” (Wyeth LLC, priority 2007, dated 2012).

Like-named read-outs stand apart in the source and are kept apart here.

One may read the IC50 as the concentration at which inhibition is half-maximal.

One experiment addresses T1, Human mTOR (FLAG-TOR) (Homo sapiens, UniProt P42345).
T1 construct: FLAG
Put plainly: Human mTOR kinase assay with purified enzyme, DELFIA format. Type of experiment: biochemical. An outline of the steps:
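Purified FLAG-mTOR in HEPES pH 7.4 buffer with 10 mM MnCl2 was preincubated with inhibitor and reacted 2 h at room temperature with His6-S6K substrate, then stopped with EDTA/EGTA. Phospho-T389 S6K detected by DELFIA with Eu-labelled antibody (40 ng/mL) after plate capture; inhibition computed from signal.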

The target in experiment [1] is T2, PI3K (Homo sapiens, UniProt O00329).
T2 construct: PI3 Kinase δ IC50; other: PI3 Kinase δ; other: PI3 Kinase δ isoform, fluorescence polarization
T2 sequence (O00329 1-1044): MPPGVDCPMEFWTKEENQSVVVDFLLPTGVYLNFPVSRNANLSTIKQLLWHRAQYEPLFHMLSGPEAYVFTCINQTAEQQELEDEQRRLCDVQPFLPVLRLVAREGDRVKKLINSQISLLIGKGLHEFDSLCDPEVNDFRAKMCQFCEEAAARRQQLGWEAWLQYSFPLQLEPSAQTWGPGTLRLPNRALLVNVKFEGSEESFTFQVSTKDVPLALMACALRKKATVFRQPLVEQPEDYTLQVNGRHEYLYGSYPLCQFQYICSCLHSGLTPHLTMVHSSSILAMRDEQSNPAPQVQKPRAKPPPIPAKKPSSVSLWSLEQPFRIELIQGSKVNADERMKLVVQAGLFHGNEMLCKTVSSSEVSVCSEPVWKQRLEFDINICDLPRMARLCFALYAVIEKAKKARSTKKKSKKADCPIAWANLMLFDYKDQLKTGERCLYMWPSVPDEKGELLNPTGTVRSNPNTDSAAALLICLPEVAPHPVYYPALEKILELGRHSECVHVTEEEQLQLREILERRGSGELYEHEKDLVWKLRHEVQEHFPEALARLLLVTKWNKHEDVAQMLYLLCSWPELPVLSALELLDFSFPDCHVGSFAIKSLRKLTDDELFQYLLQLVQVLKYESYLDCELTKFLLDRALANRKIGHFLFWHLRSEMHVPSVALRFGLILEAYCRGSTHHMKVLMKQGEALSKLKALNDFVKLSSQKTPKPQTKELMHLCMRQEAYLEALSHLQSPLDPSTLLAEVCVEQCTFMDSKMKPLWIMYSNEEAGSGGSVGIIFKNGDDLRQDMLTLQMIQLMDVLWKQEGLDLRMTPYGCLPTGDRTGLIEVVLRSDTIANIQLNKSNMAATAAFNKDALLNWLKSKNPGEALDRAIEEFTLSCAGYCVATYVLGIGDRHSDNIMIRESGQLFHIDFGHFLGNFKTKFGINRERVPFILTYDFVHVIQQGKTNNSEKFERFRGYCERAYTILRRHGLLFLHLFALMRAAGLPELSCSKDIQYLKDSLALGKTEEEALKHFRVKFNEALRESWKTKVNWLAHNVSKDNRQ
Put plainly: Fluorescence polarization assay for PI3K. It counts as biochemical. The following applies: PI3 Kinase δ. The essentials: (§1)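 PI3K was preincubated with compound (final DMSO 1%), and the reaction was started with PIP2/ATP substrate and run 30–60 min. It was stopped with a detector mix giving 10 nM red probe and 70 nM GST-GRP.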

The target of experiment [2] is T3, PI3K (Homo sapiens, UniProt P42336).
T3 construct: PI3 Kinase α IC50; other: PI3 Kinase α; other: PI3 Kinase α isoform, fluorescence polarization
Put plainly: Fluorescence polarization assay for PI3K. Type of experiment: biochemical. The conditions noted are these: read-out: PI3 Kinase α IC50. The essentials:
as §1
A general note: In fluorescence polarisation assays a small probe gives low polarisation when free and higher when bound to something large.

A further experiment relates to prostate line LNCap. Put plainly: In vitro cell culture growth assay (MTS), LNCap. Type of experiment: cell-based. The following applies: Homo sapiens, LNCaP, 72 h, LNCap cells, three days after drug treatment. An outline of the steps: (§2)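 Cells were plated and, one day later, treated with inhibitors. Three days after treatment, viable cell density was measured by MTS dye conversion, read as absorbance at 490 nm. Effects are expressed as percent of control growth versus vehicle-treated cells on the same plate.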

The next experiment relates to breast line MDA468. Put plainly: In vitro cell culture growth assay (MTS), MDA468. Type of experiment: cell-based. The conditions noted are these: Homo sapiens, 72 h, MDA468 cells, three days after drug treatment. The essentials: as §2
The target of experiment [3] is T4, PI3K (Homo sapiens, UniProt P48736).
T4 construct: PI3 Kinase γ IC50; other: PI3 Kinase γ; other: PI3 Kinase γ isoform, fluorescence polarization
Description: Fluorescence polarization assay for PI3K. It counts as biochemical. The conditions noted are these: PI3 Kinase γ isoform, fluorescence polarization; read-out: PI3 Kinase γ IC50. An outline of the steps: as §1

[4] abbreviates: purified human mTOR enzyme, DELFIA format.
Setting [5] is: PI3 Kinase α isoform, fluorescence polarization.

T3 sequence (P42336 whole entry, canonical isoform): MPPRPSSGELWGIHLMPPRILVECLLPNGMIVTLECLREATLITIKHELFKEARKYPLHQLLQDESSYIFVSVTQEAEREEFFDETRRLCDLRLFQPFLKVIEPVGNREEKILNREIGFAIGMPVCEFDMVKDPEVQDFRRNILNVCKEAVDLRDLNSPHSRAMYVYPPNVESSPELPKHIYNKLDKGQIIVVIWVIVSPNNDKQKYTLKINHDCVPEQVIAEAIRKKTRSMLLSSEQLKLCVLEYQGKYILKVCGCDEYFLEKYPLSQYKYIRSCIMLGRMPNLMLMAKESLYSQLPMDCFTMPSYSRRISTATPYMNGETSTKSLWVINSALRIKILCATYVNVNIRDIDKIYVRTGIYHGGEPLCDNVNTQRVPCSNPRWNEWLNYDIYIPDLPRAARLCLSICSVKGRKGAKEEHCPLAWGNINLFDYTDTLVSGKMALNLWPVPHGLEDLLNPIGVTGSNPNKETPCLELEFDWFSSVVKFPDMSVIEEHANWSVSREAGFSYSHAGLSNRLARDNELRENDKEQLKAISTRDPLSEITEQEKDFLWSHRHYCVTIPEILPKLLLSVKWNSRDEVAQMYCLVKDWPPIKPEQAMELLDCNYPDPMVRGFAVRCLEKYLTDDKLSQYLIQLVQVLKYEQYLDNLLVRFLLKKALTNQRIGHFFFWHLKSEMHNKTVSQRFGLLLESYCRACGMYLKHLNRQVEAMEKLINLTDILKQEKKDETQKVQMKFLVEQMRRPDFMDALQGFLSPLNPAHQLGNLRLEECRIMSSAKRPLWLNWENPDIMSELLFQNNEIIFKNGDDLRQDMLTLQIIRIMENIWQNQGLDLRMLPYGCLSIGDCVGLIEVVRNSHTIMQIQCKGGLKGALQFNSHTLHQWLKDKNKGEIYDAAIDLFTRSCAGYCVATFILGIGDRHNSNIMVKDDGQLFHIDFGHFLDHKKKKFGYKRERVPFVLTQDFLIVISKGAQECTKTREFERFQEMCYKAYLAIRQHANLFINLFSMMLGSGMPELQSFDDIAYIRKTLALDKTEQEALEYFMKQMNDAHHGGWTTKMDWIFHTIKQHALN
T4 sequence (P48736 whole entry, canonical isoform): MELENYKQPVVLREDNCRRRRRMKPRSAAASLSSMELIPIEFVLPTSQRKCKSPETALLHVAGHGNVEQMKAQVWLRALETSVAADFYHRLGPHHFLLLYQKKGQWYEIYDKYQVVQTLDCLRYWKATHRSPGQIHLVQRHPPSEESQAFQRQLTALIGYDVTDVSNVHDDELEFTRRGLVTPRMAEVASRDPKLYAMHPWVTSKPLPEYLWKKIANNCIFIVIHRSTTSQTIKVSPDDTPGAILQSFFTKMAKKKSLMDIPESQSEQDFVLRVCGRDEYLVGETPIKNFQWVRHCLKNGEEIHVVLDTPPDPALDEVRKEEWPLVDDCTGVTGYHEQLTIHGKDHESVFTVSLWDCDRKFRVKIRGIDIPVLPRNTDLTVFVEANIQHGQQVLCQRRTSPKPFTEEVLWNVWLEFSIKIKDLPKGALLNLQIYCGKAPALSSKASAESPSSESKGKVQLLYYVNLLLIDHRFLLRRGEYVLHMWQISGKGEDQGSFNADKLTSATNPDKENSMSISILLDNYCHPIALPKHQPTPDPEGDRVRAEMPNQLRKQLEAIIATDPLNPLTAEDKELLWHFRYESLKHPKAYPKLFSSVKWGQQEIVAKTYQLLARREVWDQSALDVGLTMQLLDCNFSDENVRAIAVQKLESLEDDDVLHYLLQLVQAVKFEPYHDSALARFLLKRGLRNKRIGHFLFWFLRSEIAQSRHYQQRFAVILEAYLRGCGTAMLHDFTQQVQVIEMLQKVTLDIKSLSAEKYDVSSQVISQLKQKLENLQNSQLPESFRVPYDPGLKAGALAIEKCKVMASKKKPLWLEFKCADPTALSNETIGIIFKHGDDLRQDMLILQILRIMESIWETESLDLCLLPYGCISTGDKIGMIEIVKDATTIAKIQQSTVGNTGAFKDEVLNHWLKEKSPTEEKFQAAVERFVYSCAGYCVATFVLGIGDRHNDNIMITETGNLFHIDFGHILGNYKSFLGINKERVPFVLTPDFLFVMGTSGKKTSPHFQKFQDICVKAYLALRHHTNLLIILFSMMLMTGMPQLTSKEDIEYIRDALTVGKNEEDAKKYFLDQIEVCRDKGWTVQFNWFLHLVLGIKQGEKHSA

Take `CN1CCN(c2ccc(NC(=O)Nc3ccc(-c4nc(N5CC6CCC(C5)O6)c5cnn(CC(F)(F)F)c5n4)cc3)cc2)CC1` [Example 261, 1-[4-(4-methylpiperazin-1-yl)phenyl]-3-{4-[4-(8-oxa-3-azabicyclo[3.2.1]oct-3-yl)-1-(2,2,2-trifluoroethyl)-1H-pyrazolo[3,4-d]pyrimidin-6-yl]phenyl}urea]: the concentration for half-maximal inhibition (IC50) turned out to be 0.776 nM at Human mTOR (FLAG-TOR); 945 nM against PI3K [1]; 142 nM on PI3K [2] (PI3 Kinase α); 1 nM with prostate line LNCap; 2 nM in the experiment with breast line MDA468.

For `Nc1ncc(-c2nc(N3CC4CCC(C3)O4)c3sccc3n2)cn1` [Example 421, 5-[4-(8-oxa-3-azabicyclo[3.2.1]oct-3-yl)thieno[3,2-d]pyrimidin-2-yl]pyrimidin-2-amine], the 50% inhibitory concentration (IC50) turned out to be 51 nM at Human mTOR (FLAG-TOR) (setting [4]); 246 nM on PI3K [2] (setting [5]); 9180 nM on PI3K [3]; 1200 nM with prostate line LNCap; 3900 nM in the experiment with breast line MDA468.

Consider `Oc1ccc(Nc2nc(N3CC4CCC(C3)O4)c3sccc3n2)cc1` [Example 422, 4-{[4-(8-oxa-3-azabicyclo[3.2.1]oct-3-yl)thieno[3,2-d]pyrimidin-2-yl]amino}phenol], for which the 50% inhibitory concentration (IC50) on Human mTOR (FLAG-TOR) (setting [4]) was 270 nM; at PI3K [2] (setting [5]) it was 4430 nM; at PI3K [3], over 10000 nM; in the experiment with prostate line LNCap, 7200 nM; in the experiment on breast line MDA468, 31000 nM.

In the case of `CN1CCN(Cc2cc3nc(-c4ccc(NC(=O)NC5CC5)cc4)nc(N4CC5CCC(C4)O5)c3s2)CC1` [Example 424, 1-cyclopropyl-3-(4-{6-[(4-methylpiperazin-1-yl)methyl]-4-(8-oxa-3-azabicyclo[3.2.1]oct-3-yl)thieno[3,2-d]pyrimidin-2-yl}phenyl)urea], the IC50 was 15.5 nM at Human mTOR (FLAG-TOR) (setting [4]); 874 nM on PI3K [2] (setting [5]); 3670 nM at PI3K [3]; 400 nM in the experiment with prostate line LNCap; 2000 nM with breast line MDA468.

As for `CN1CCN(Cc2cc3nc(-c4ccc(NC(=O)NN(C)C)cc4)nc(N4CC5CCC(C4)O5)c3s2)CC1` [Example 425, 2,2-dimethyl-N-(4-{6-[(4-methylpiperazin-1-yl)methyl]-4-(8-oxa-3-azabicyclo[3.2.1]oct-3-yl)thieno[3,2-d]pyrimidin-2-yl}phenyl)hydrazinecarboxamide], the IC50 against Human mTOR (FLAG-TOR) (setting [4]) was 545 nM; on PI3K [2] (setting [5]), 5530 nM; on PI3K [3], over 10000 nM; in the experiment on prostate line LNCap, 19000 nM; with breast line MDA468, 23000 nM.

For `CN1CCN(Cc2cc3nc(-c4ccc(NC(=O)Nc5cccnc5)cc4)nc(N4CC5CCC(C4)O5)c3s2)CC1` [Example 426, 1-(4-{6-[(4-methylpiperazin-1-yl)methyl]-4-(8-oxa-3-azabicyclo[3.2.1]oct-3-yl)thieno[3,2-d]pyrimidin-2-yl}phenyl)-3-pyridin-3-ylurea], the IC50 was found to be 4.7 nM at Human mTOR (FLAG-TOR) (setting [4]); 148 nM on PI3K [2] (setting [5]); 2610 nM on PI3K [3]; 180 nM with prostate line LNCap; 380 nM in the experiment with breast line MDA468.

As for `CN1CCN(Cc2cc3nc(-c4ccc(NC(=O)Nc5ccncc5)cc4)nc(N4CC5CCC(C4)O5)c3s2)CC1` [Example 427, 1-(4-{6-[(4-methylpiperazin-1-yl)methyl]-4-(8-oxa-3-azabicyclo[3.2.1]oct-3-yl)thieno[3,2-d]pyrimidin-2-yl}phenyl)-3-pyridin-4-ylurea], the concentration for half-maximal inhibition (IC50) worked out at 3.7 nM against Human mTOR (FLAG-TOR) (setting [4]); 86 nM on PI3K [2] (setting [5]); 1270 nM on PI3K [3]; 200 nM in the experiment on prostate line LNCap; 390 nM in the experiment with breast line MDA468.

With `CN1CCN(Cc2cc3nc(-c4ccc(NC(=O)Nc5ccc(C(N)=O)cc5)cc4)nc(N4CC5CCC(C4)O5)c3s2)CC1` [Example 428, 4-{[(4-{6-[(4-methylpiperazin-1-yl)methyl]-4-(8-oxa-3-azabicyclo[3.2.1]oct-3-yl)thieno[3,2-d]pyrimidin-2-yl}phenyl)carbamoyl]amino}benzamide], the IC50 against Human mTOR (FLAG-TOR) (setting [4]) was found to be 1.5 nM; at PI3K [2] (setting [5]), 34 nM; at PI3K [3], 815 nM; with prostate line LNCap it was 240 nM; in the experiment on breast line MDA468, 110 nM.

For the compound `CNC(=O)Nc1ccc(-c2nc(N3CC4CCC(C3)O4)c3sc(CN4CCN(S(C)(=O)=O)CC4)cc3n2)cc1` [Example 429, 1-methyl-3-{4-[6-{[4-(methylsulfonyl)piperazin-1-yl]methyl}-4-(8-oxa-3-azabicyclo[3.2.1]oct-3-yl)thieno[3,2-d]pyrimidin-2-yl]phenyl}urea], the half-maximal inhibitory concentration (IC50) was 1.41 nM on Human mTOR (FLAG-TOR) (setting [4]); 46 nM on PI3K [2] (setting [5]); 3710 nM on PI3K [3]; 120 nM with prostate line LNCap; 90 nM in the experiment on breast line MDA468.

Regarding `CCNC(=O)Nc1ccc(-c2nc(N3CC4CCC(C3)O4)c3sc(CN4CCN(S(C)(=O)=O)CC4)cc3n2)cc1` [Example 430, 1-ethyl-3-{4-[6-{[4-(methylsulfonyl)piperazin-1-yl]methyl}-4-(8-oxa-3-azabicyclo[3.2.1]oct-3-yl)thieno[3,2-d]pyrimidin-2-yl]phenyl}urea], the 50% inhibitory concentration (IC50) against Human mTOR (FLAG-TOR) (setting [4]) is 1.29 nM; at PI3K [2] (setting [5]), 113 nM; at PI3K [3], 1630 nM; with prostate line LNCap it was 36 nM; in the experiment with breast line MDA468 it was 90 nM.

As for `CS(=O)(=O)N1CCN(Cc2cc3nc(-c4ccc(NC(=O)NC5CC5)cc4)nc(N4CC5CCC(C4)O5)c3s2)CC1` [Example 431, 1-cyclopropyl-3-{4-[6-{[4-(methylsulfonyl)piperazin-1-yl]methyl}-4-(8-oxa-3-azabicyclo[3.2.1]oct-3-yl)thieno[3,2-d]pyrimidin-2-yl]phenyl}urea], the half-inhibitory concentration (IC50) against Human mTOR (FLAG-TOR) (setting [4]) stood at 1.01 nM; on PI3K [2] (setting [5]) it was 179 nM; at PI3K [3] it was 1530 nM; in the experiment on prostate line LNCap it was 32 nM; in the experiment on breast line MDA468 it was 200 nM.

For the compound `CS(=O)(=O)N1CCN(Cc2cc3nc(-c4ccc(NC(=O)Nc5ccccc5)cc4)nc(N4CC5CCC(C4)O5)c3s2)CC1` [Example 432, 1-{4-[6-{[4-(methylsulfonyl)piperazin-1-yl]methyl}-4-(8-oxa-3-azabicyclo[3.2.1]oct-3-yl)thieno[3,2-d]pyrimidin-2-yl]phenyl}-3-phenylurea], the half-maximal inhibitory concentration (IC50) was 1.3 nM against Human mTOR (FLAG-TOR) (setting [4]); 6 nM at PI3K [2] (setting [5]); 522 nM at PI3K [3]; 4 nM with prostate line LNCap; 37 nM in the experiment on breast line MDA468.

Regarding `CS(=O)(=O)N1CCN(Cc2cc3nc(-c4ccc(NC(=O)Nc5ccncc5)cc4)nc(N4CC5CCC(C4)O5)c3s2)CC1` [Example 434, 1-{4-[6-{[4-(methylsulfonyl)piperazin-1-yl]methyl}-4-(8-oxa-3-azabicyclo[3.2.1]oct-3-yl)thieno[3,2-d]pyrimidin-2-yl]phenyl}-3-pyridin-4-ylurea], the IC50 was found to be 0.445 nM against Human mTOR (FLAG-TOR) (setting [4]); 8 nM at PI3K [2] (setting [5]); 330 nM at PI3K [3]; 120 nM with prostate line LNCap; 180 nM in the experiment with breast line MDA468.
